Test results published in US20050261288A1, “Tetracyclic lactam derivatives and uses thereof” (priority 2004, published 2005).

Target: T1, PARP (Mus musculus, UniProt P11103)
T1 construct: endogenous in cells; host or cells: RAW mouse macrophages
Test: PARP activation in cultured murine macrophages, whole-cell macrophage assay (peroxynitrite-induced)
Format: cell-based
Details: for IC50: PARP activation in cultured murine macrophages
Method: Without being bound by theory, Applicants believe that Tetracyclic Lactam Derivatives that inhibit PARP are useful for treating or preventing a Condition.
In a typical procedure, RAW mouse macrophages are cultured in DMEM medium with high glucose and supplemented with 10% fetal bovine serum. Cells are used at 80% confluence in 12-well plates. Cells are pretreated with various concentrations (100 nM-1 μM) of a Tetracyclic Lactam Derivative for 10 min. Peroxynitrite, a prototypical oxidant which induces DNA single strand breakage, is used to induce PARP activation. In a typical assay, peroxynitrite is diluted in phosphate buffered saline (PBS) (pH 11.0) and added to the cells in a bolus of 50 μL. Cells are then incubated for 20 minutes. Peroxynitrite is decomposed by incubation for 30 min at pH 7.0, and used as a control. After the 20 minute incubation period, the cells are spun, the medium is aspirated and the cells are resuspended in 0.5 mL assay buffer (56 mM HEPES pH 7:5, 28 mM KCl, 28 mM NaCl, 2 mM MgCl2, 0.01% w/v digitonin and 0.125 μM NAD^+ and 0.5 μCi/ml ^3H-NAD^+). Following incubation in assay buffer, (10 min at 37° C.), PARP activity can be measured as follows: 200 μL ice cold 50% w/v TCA is added and the samples are incubated for 4 h at 4° C. Samples are then spun (10 min @ 10,000 g) and the resulting pellets are washed twice with ice cold 5% w/v TCA and solubilized overnight in 250 μL 2% w/v SDS/0.1 N NaOH at 37° C. The contents of the tubes are added to 6.5 mL ScintiSafe Plus scintillation liquid (Fisher Scientific) and radioactivity is determined using a liquid scintillation counter (Wallac, Gaithersburg, Md.).
Examples of the inhibitory effects of illustrative Tetracyclic Lactam Derivatives in the whole-cell macrophage assay are illustrated in Tables 3 and 4 below.

T1 sequence (P11103 whole entry): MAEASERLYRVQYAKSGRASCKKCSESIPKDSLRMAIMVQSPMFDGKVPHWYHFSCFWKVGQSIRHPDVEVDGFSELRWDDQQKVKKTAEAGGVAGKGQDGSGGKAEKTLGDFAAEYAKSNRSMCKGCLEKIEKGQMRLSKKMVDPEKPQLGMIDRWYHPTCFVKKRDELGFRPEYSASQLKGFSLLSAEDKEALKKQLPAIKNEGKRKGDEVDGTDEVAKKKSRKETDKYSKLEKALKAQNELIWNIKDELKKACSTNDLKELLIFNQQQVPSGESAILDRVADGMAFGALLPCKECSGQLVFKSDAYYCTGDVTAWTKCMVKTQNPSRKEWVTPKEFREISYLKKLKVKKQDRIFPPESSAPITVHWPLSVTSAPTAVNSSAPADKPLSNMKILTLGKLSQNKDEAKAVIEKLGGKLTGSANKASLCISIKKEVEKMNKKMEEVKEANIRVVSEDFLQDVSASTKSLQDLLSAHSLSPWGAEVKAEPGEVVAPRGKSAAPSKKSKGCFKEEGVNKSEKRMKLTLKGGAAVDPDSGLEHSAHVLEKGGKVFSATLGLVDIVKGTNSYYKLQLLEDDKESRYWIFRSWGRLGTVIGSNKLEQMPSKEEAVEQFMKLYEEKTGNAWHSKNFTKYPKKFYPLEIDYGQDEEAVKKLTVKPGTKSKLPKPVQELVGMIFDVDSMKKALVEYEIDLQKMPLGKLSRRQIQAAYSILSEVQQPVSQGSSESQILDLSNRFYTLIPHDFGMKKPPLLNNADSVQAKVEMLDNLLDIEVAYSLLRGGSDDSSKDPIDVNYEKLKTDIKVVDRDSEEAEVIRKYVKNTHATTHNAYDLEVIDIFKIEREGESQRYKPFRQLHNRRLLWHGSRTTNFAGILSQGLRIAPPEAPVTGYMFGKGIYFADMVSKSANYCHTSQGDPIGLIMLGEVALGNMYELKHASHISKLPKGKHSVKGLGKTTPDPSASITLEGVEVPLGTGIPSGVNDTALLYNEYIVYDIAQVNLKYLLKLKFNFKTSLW

Row | IC50 [µM] | inhibition at 0.1 µM (0.1 μM, RAW mouse macrophages, peroxynitrite-induced PARP activation) [%] | inhibition at 0.3 µM (0.3 μM, RAW mouse macrophages, peroxynitrite-induced PARP activation) [%] | inhibition at 1 µM (1 μM, RAW mouse macrophages, peroxynitrite-induced PARP activation) [%] | inhibition at 3 µM (3 μM, RAW mouse macrophages, peroxynitrite-induced PARP activation) [%] | Structure (SMILES)
1 | 10 to 100 | – | – | – | – | CCCOC(=O)n1c2ccccc2c2[nH]c(=O)c3ccccc3c21 [Compound 107, N-PROPYL-5-OXO-5,6-DIHYDRO-INDOLO[3,2-C]ISOQUINOLINE-11-CARBOXYLATE]
2 | 10 to 100 | – | – | – | – | CC(C)OC(=O)n1c2ccccc2c2[nH]c(=O)c3ccccc3c21 [Compound 108, ISO-PROPYL-5-OXO-5,6-DIHYDRO-INDOLO[3,2-C]ISOQUINOLINE-11-CARBOXYLATE]
3 | 1 to 10 | 33 | 43 | 50 | 65 | CCOC(=O)n1c2ccccc2c2[nH]c(=O)c3ccccc3c21 [Compound 63, ETHYL-5-OXO-5,6-DIRYDRO-INDOLO[3,2-C]ISOQUINOLINE-11-CARBOXYLATE]
4 | 10 to 100 | – | – | – | – | COC(=O)n1c2ccccc2c2[nH]c(=O)c3ccccc3c21 [Compound 61, METHYL-5-OXO-5,6-DIHYDRO-INDOLO[3,2-C]ISOQUINOLINE-11-CARBOXYLATE]
5 | 10 to 100 | – | – | – | – | CCCCOC(=O)n1c2ccccc2c2[nH]c(=O)c3ccccc3c21 [Compound 109, N-BUTYL-5-OXO-5,6-DIHYDRO-INDOLO[3,2-C]ISOQUINOLINE-11-CARBOXYLATE]
